From paper PMC6355801, “The compound TB47 is highly bactericidal against Mycobacterium ulcerans in a Buruli ulcer mouse model” (Nature Communications, 2019)
In brackets after ≈: the same amount, converted by molar mass. Like-named read-outs stand apart in the source and are kept apart here.

What was measured:
M. marinum = assay type: cell-based, Mycobacterium marinum
M. ulcerans = assay type: cell-based, Mycobacterium ulcerans
M. ulcerans (AlMu) = experiment: Time kill assay and CFU-based MBC in liquid culture; assay type: cell-based, Mycobacterium ulcerans
Method: Serial dilutions of drug-containing solutions and autoluminescent mycobacteria broth culture (OD600 of 0.3 to 1.0) were prepared. RLU counts from the same batch of triplicate samples were measured according to the designed time points. Ninety-six-well plates were measured as rendering the amount of light by using a Veritas™ Microplate Luminometer Operating Manual (Turner BioSystems). MIClux was determined as the lowest concentration that can inhibit > 90% RLUs compared with that from the untreated controls[6],[18]. The time-killing curves and MIClux of autoluminescent strains were determined by detecting RLUs from these samples. For M. ulcerans and M. marinum strains, the incubation time for MIClux reading was 7 days and 3 days, respectively. The minimum bactericidal concentration (MBC) was defined as the lowest concentration of drug that killed ≥ 99% of the CFU compared with the CFU count of the initial inoculum used for the liquid activity assays, which was adopted from reference. […] The concentrations used were twofold series of dilutions for this purpose. The incubation time for RLU reading was 14 days for the MBD experiment and the light from each 1.5 mL tube containing total 500 μL culture was detected using Promega GloMax 20/20n. […] The concentrations used were fivefold series of dilutions for this purpose. Each above experiment was performed in triplicate (three independent experiments) or more by independent persons and from three or more independent cultures. The representative results are shown.

Salmonella enteriditis = experiment: MIC, standard broth dilution assay (CLSI); assay type: cell-based; conditions: 1 clinical isolate
Enterococcus faecium = experiment: MIC, standard broth dilution assay (CLSI); assay type: cell-based; conditions: 1 clinical isolate
Pseudomonas aeruginosa = experiment: MIC, standard broth dilution assay (CLSI); assay type: cell-based; conditions: 3 clinical isolates
CYP 2C9 = CYP 2C9 (Homo sapiens, UniProt P11712); experiment: CYP inhibition; assay type: in vitro ADME
CYP 2C9, sequence (P11712 whole entry): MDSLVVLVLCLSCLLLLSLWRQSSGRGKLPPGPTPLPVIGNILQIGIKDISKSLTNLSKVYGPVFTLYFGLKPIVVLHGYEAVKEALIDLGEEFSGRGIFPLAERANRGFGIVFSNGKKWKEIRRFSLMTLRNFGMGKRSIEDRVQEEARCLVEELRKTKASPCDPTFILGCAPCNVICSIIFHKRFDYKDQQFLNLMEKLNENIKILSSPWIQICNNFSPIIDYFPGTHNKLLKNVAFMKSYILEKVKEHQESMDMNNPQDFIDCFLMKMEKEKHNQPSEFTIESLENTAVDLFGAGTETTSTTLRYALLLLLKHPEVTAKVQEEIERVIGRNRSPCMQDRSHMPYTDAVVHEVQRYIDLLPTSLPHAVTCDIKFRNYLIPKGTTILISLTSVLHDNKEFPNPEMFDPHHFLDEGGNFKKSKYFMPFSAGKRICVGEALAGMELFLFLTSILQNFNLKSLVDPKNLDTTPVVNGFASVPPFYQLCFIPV

CYP 2D6 = CYP 2D6 (Homo sapiens, UniProt P10635); assay type: in vitro ADME; conditions: read-out: CYP Inhibition (IC50)
CYP 2D6, sequence (P10635 whole entry): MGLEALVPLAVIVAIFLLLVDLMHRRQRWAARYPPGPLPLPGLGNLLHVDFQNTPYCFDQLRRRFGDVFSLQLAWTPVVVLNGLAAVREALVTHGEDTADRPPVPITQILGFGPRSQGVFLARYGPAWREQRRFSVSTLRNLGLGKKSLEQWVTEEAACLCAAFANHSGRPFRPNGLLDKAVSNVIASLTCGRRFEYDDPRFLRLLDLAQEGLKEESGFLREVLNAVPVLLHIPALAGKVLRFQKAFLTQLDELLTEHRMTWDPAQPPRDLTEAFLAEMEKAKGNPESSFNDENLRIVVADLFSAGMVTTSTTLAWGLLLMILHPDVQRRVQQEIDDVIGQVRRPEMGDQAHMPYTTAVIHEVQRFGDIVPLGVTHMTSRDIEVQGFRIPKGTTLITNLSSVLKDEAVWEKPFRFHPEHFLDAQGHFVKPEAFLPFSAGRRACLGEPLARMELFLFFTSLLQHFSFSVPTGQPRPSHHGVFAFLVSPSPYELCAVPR

[1] = system: Mycobacterium bovis BCG Tice; assay type: cell-based; conditions: 1 strain
Mycobacterium abscessus = experiment: MIC, standard broth dilution assay (CLSI); assay type: cell-based; conditions: 20 clinical isolates
Candida albicans = experiment: MIC, standard broth dilution assay (CLSI); assay type: cell-based; conditions: 2 clinical isolates
CYP 3A4 = CYP 3A4 (Homo sapiens, UniProt P08684); conditions: read-out: CYP Inhibition (IC50)
CYP 3A4, sequence (P08684 whole entry): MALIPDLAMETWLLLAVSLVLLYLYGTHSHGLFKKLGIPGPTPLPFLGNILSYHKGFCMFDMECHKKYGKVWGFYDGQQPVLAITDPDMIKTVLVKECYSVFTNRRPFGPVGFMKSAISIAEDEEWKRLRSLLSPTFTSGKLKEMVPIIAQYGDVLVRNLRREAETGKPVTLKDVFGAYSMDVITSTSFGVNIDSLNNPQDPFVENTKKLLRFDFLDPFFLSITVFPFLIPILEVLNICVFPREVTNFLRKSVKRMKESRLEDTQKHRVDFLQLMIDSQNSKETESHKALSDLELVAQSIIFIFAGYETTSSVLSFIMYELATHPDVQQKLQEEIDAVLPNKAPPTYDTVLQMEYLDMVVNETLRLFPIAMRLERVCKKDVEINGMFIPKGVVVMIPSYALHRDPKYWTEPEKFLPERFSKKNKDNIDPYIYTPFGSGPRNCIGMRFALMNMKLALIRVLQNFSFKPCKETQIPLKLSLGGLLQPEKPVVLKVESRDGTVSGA

Staphylococcus aureus = experiment: MIC, standard broth dilution assay (CLSI); assay type: cell-based; conditions: 1 clinical isolate
Enterococcus faecalis = experiment: MIC, standard broth dilution assay (CLSI); assay type: cell-based; conditions: 1 clinical isolate
Escherichia coli = experiment: MIC, standard broth dilution assay (CLSI); assay type: cell-based; conditions: 5 clinical isolates
M. smegmatis = experiment: microbe, parasite or virus in culture; assay type: cell-based, Mycobacterium smegmatis
[2] = not told
CYP 1A2 = CYP 1A2 (Homo sapiens, UniProt P05177); experiment: CYP inhibition; assay type: in vitro ADME
CYP 1A2, sequence (P05177 whole entry): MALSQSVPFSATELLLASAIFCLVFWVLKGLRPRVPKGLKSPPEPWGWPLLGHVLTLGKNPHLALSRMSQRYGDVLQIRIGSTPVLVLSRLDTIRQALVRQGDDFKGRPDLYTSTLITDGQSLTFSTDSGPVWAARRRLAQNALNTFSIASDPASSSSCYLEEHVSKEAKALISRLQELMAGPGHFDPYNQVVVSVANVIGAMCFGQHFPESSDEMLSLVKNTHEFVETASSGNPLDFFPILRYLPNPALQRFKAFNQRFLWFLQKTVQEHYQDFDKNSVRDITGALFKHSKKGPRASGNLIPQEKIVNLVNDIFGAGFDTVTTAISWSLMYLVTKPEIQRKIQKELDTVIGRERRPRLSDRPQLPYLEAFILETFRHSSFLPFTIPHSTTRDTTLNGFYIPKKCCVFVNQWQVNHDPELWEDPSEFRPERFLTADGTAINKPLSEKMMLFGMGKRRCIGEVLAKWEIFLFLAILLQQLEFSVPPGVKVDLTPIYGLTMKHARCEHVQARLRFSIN

[3] = assay type: in vitro ADME, Rat
Description: (§1) Supplement 41467_2019_8464_MOESM1_ESM.docx, table 4: Table 2-3 Metabolic stability | column: T1/2 (min); Clint In Vitro (mL min^-1 gprot^-1); Clint In Vivo Extpl (mL min^-1); Clint Hep In Vivo Extpl (mL min^-1); Stability

hERG = hERG (Homo sapiens, UniProt Q12809); experiment: hERG inhibition; assay type: biochemical
hERG, sequence (Q12809 whole entry): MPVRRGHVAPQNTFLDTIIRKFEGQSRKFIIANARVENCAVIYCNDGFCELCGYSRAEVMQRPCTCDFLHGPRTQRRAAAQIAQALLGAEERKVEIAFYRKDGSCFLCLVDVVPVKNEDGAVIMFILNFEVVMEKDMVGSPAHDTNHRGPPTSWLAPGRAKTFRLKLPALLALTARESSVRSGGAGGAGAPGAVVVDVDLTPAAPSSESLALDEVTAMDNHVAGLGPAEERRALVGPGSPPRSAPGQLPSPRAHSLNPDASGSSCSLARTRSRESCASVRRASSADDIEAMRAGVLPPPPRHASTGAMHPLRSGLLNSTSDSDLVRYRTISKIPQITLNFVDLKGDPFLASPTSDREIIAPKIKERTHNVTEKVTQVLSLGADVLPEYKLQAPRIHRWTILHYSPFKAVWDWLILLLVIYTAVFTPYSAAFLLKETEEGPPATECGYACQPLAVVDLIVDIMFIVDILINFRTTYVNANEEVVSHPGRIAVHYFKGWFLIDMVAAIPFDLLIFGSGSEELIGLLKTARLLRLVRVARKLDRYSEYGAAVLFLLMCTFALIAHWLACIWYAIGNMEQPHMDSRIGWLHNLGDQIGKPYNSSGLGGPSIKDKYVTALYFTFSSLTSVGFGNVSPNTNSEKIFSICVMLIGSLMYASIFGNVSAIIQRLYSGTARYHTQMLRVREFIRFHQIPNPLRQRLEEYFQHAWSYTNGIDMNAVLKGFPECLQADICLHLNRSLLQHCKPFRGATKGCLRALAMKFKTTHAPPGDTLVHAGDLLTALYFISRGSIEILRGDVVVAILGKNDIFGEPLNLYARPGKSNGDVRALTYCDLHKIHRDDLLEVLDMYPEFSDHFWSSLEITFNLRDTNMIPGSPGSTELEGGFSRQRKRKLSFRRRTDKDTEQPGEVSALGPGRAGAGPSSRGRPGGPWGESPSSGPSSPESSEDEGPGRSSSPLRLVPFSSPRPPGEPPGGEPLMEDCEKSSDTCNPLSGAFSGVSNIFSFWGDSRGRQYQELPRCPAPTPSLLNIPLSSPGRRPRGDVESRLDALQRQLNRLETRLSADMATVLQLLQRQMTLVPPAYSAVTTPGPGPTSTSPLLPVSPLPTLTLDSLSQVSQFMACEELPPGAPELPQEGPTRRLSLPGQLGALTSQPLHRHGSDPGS

[4] = assay type: in vitro ADME, Human
Description: as §1

[5] = assay type: in vitro ADME, Mouse
Description: as §1

[6] = parameters: species or system BALB/c mice; conditions: mouse, in vivo
Method: BALB/c mice were given 2 mg kg^−1 TB47 intravenously or 10 mg kg^−1 orally. […] Footpads and lung tissues were collected at 6, 12, 24, and 48 h post-dose for oral group. After extraction and centrifuge at 4 °C, TB47 concentrations were determined by Liquid Chromatograph-Mass Spectrometer (LC-MS).

[7] = Long-term administration study in rats; assay type: in vivo; conditions: 10, 30, or 100 mg kg^−1 orally daily for 30 days, male and female rats
[8] = system: most of the clinical strains; experiment: MIC, standard broth dilution assay (CLSI), summary for clinical strains; assay type: cell-based
CYP 2C19 = CYP 2C19 (Homo sapiens, UniProt P33261); assay type: in vitro ADME; conditions: read-out: CYP Inhibition (IC50)
CYP 2C19, sequence (P33261 whole entry): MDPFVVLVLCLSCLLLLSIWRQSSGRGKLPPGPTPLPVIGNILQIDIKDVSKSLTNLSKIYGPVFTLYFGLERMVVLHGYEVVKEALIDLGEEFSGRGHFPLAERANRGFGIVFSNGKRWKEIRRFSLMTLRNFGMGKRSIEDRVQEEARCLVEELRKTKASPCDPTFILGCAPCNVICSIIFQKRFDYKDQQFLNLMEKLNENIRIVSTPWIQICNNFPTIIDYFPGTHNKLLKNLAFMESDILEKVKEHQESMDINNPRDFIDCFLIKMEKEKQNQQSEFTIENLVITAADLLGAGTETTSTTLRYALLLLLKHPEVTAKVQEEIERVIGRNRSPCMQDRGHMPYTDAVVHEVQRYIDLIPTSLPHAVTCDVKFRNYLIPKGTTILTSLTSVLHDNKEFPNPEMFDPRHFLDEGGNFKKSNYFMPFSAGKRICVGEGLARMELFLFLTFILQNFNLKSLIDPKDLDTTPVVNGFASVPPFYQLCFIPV

[9] = system: M. ulcerans strains 1059 and 1615; experiment: MIC on 7H11 agar plates; assay type: cell-based; conditions: Mycobacterium ulcerans, 2 strains (1059 and 1615)
[10] = assay type: in vitro ADME, Dog
Description: as §1

THP-1 cell = experiment: Cytotoxicity; assay type: cell-based
Acinetobacter baumannii = experiment: MIC, standard broth dilution assay (CLSI); assay type: cell-based; conditions: 3 clinical isolates
Klebsiella pneumoniae = experiment: MIC, standard broth dilution assay (CLSI); assay type: cell-based; conditions: 3 clinical isolates
[11] = assay type: in vitro ADME, Monkey
Description: as §1

[12] = Oral tolerability in mice; assay type: in vivo

Question: With `CO[C@H]1/C=C/O[C@@]2(C)Oc3c(C)c(O)c4c(O)c(c(/C=N/N5CCN(C)CC5)c(O)c4c3C2=O)NC(=O)/C(C)=C\C=C\[C@H](C)[C@H](O)[C@@H](C)[C@@H](O)[C@@H](C)[C@H](OC(C)=O)[C@@H]1C` [RIF, rifampin] as the compound, how does the MIClux (M. marinum; M. marinum Wild-type (Autoluminescent strain)) read?
Answer: 0.25 to 1.0 µg/mL

Question: And the MIClux (M. marinum; M. marinum Wild-type:: qcrB^WT, over-expression of wild-type qcrB)?
Answer: 0.25 to 1.0 µg/mL

Question: What about the MIClux (M. marinum; M. marinum Wild-type:: vector (empty plasmid)) of the same compound?
Answer: 0.25 to 1.0 µg/mL

Question: And the MIClux (M. ulcerans; M. ulcerans Wild-type (AlMu 1059))?
Answer: 0.06 to 0.25 µg/mL

Question: What about the MIClux (M. ulcerans; M. ulcerans Wild-type:: qcrB^WT, over-expression of wild-type qcrB) of the same compound?
Answer: 0.06 to 0.25 µg/mL

Question: And the MIClux (M. ulcerans; M. ulcerans Wild-type:: vector (empty plasmid))?
Answer: 0.06 to 0.25 µg/mL

Question: Which “bactericidal activity compared with 0.2 µg mL^−1 rifampin” value (M. ulcerans (AlMu); TB47 at 0.008 µg mL^−1 or higher, time kill assay) does the source give for `COc1ccn2nc(C)c(C(=O)NCc3ccc(N4CCC(c5ccc(OC(F)(F)F)cc5)CC4)cc3)c2c1` [TB47] here?
Answer: more potent

Question: And the “minimum bactericidal concentration (MBC)” value (M. ulcerans (AlMu); killed ≥ 99% of CFU of the initial inoculum)?
Answer: 0.0064 µg/mL (≈ 0.0119 µM)

Question: And the “concentration demonstrating bactericidal activity” value (M. ulcerans (AlMu); standard time kill assay, AlMu in liquid culture)?
Answer: ≥ 0.0016 µg/mL

Question: And the MIC (Salmonella enteriditis)?
Answer: >128 µg/mL

Question: And the MIC (Enterococcus faecium)?
Answer: >128 µg/mL

Question: What about the MIC (Pseudomonas aeruginosa) of the same compound?
Answer: >128 µg/mL

Question: What about the IC50 (CYP 2C9) of the same compound?
Answer: > 10 µM

Question: And the IC50 (CYP 2D6)?
Answer: > 10 µM

Question: And the MIC [1]?
Answer: 0.003 µg/mL (≈ 0.00557 µM)

Question: What about the IC50 (VERO cell) of the same compound?
Answer: > 100 µM

Question: What about the MIC (Mycobacterium abscessus) of the same compound?
Answer: >128 µg/mL

Question: What about the MIC (Candida albicans) of the same compound?
Answer: >128 µg/mL

Question: And the IC50 (CYP 3A4; 3A4-Midazolam)?
Answer: > 10 µM

Question: And the IC50 (CYP 3A4; 3A4-Testerone)?
Answer: > 10 µM

Question: What about the MIC (Staphylococcus aureus) of the same compound?
Answer: >128 µg/mL

Question: And the MIC (Enterococcus faecalis)?
Answer: >128 µg/mL

Question: And the MIC (M. marinum; Mycobacterium marinum, 1 strain)?
Answer: 0.001 to 0.008 µg/mL

Question: What about the MIC (Escherichia coli) of the same compound?
Answer: >128 µg/mL

Question: What about the MIC (M. smegmatis; Mycobacterium smegmatis, 1 strain) of the same compound?
Answer: 50 µg/mL (≈ 92.8 µM)

Question: And the “Conclusion: P-gp substrate” value [2]?
Answer: Not P-gp substrate

Question: And the “Conclusion: permeability” value [2]?
Answer: High permeability

Question: What about the “Efflux Ratio” value [2] of the same compound?
Answer: 1.07

Question: What about the IC50 (CYP 1A2) of the same compound?
Answer: > 10 µM

Question: What about the Stability [3] of the same compound?
Answer: High

Question: And the “Clint Hep In Vivo Extpl” value ([3]; rat)?
Answer: 5.4 mL/min

Question: And the “Clint In Vitro” value ([3]; rat)?
Answer: 16.5 mL min^-1 gprot^-1

Question: What about the “Clint In Vivo Extpl” value ([3]; rat) of the same compound?
Answer: 7.4 mL/min

Question: What about the T1/2 ([3]; rat) of the same compound?
Answer: 2.13 h

Question: And the IC50 (hERG)?
Answer: > 30 µM

Question: What about the Stability [4] of the same compound?
Answer: High

Question: What about the “Clint Hep In Vivo Extpl” value ([4]; human) of the same compound?
Answer: 0.0 mL/min

Question: What about the “Clint In Vitro” value ([4]; human) of the same compound?
Answer: 0.0 mL min^-1 gprot^-1

Question: What about the “Clint In Vivo Extpl” value ([4]; human) of the same compound?
Answer: 0.0 mL/min

Question: And the T1/2 ([4]; human)?
Answer: Stable

Question: What about the Stability [5] of the same compound?
Answer: High

Question: What about the “Clint Hep In Vivo Extpl” value ([5]; mouse) of the same compound?
Answer: 0.8 mL/min

Question: And the “Clint In Vitro” value ([5]; mouse)?
Answer: 16.5 mL min^-1 gprot^-1

Question: What about the “Clint In Vivo Extpl” value ([5]; mouse) of the same compound?
Answer: 1.1 mL/min

Question: And the T1/2 ([5]; mouse)?
Answer: 2.12 h

Question: And the bioavailability [6]?
Answer: 38.1%

Question: What about the “MRT(0-t)” value ([6]; iv, 2 mg/kg) of the same compound?
Answer: 14.7 h

Question: What about the “MRT(0-∞)” value ([6]; iv, 2 mg/kg) of the same compound?
Answer: 22.3 h

Question: And the “t 1/2z” value ([6]; iv, 2 mg/kg)?
Answer: 17.7 h

Question: And the “MRT(0-t)” value ([6]; po, 10 mg/kg)?
Answer: 20.2 h

Question: And the “MRT(0-∞)” value ([6]; po, 10 mg/kg)?
Answer: 52.0 h

Question: What about the “t 1/2z” value ([6]; po, 10 mg/kg) of the same compound?
Answer: 35.6 h

Question: And the tolerability [7]?
Answer: well tolerated without any meaningful clinical signs of toxicity

Question: What about the MICs [8] of the same compound?
Answer: > 128 µg/mL

Question: What about the IC50 (CYP 2C19) of the same compound?
Answer: > 10 µM

Question: What about the MIC [9] of the same compound?
Answer: 0.0016 µg/mL (≈ 0.00297 µM)

Question: What about the Stability [10] of the same compound?
Answer: High

Question: And the “Clint Hep In Vivo Extpl” value ([10]; dog)?
Answer: 17.1 mL/min

Question: What about the “Clint In Vitro” value ([10]; dog) of the same compound?
Answer: 3.5 mL min^-1 gprot^-1

Question: And the “Clint In Vivo Extpl” value ([10]; dog)?
Answer: 19.0 mL/min

Question: And the T1/2 ([10]; dog)?
Answer: 9.97 h

Question: And the IC50 (THP-1 cell)?
Answer: 50 µM

Question: What about the MIC (Acinetobacter baumannii) of the same compound?
Answer: >128 µg/mL

Question: What about the MIC (Klebsiella pneumoniae) of the same compound?
Answer: >128 µg/mL

Question: And the Stability [11]?
Answer: High

Question: And the “Clint Hep In Vivo Extpl” value ([11]; monkey)?
Answer: 0.1 mL/min

Question: And the “Clint In Vitro” value ([11]; monkey)?
Answer: 0.0 mL min^-1 gprot^-1

Question: What about the “Clint In Vivo Extpl” value ([11]; monkey) of the same compound?
Answer: 0.1 mL/min

Question: What about the T1/2 ([11]; monkey) of the same compound?
Answer: 1555 h

Question: And the tolerability ([12]; oral 200 mg kg^−1 daily for 4 weeks, mice)?
Answer: well tolerated

Question: What about the tolerability ([12]; single oral administration of 2000 mg kg^−1, mice) of the same compound?
Answer: well tolerated

Question: With `NNC(=O)c1ccncc1` [isoniazid] as the compound, how does the MIC (M. smegmatis; MsmΔcydAB) read?
Answer: 4 µg/mL (≈ 29.2 µM)

Question: And the MIC (M. smegmatis; MsmΔcydAB::cydAB^Mtb)?
Answer: 4 µg/mL (≈ 29.2 µM)

Question: What about the MIC (M. smegmatis; MsmΔcydAB::cydAB^Mu) of the same compound?
Answer: 4 µg/mL (≈ 29.2 µM)

Question: What about the MIC (M. smegmatis; Mycolicibacterium smegmatis) of the same compound?
Answer: 4 µg/mL (≈ 29.2 µM)
